Source: patent US9862792B2, “Diblock copolymers and polynucleotide complexes thereof for delivery into cells” (University of Washington, priority 2008, dated 2018)

Tests used:
[1] = system: mitochondrial membrane potential in HeLas; experiment: Flow cytometry of mitochondrial membrane potential (JC-1 dye); format: cell-based, human; settings: HeLa, 2 hours, 10 μM peptide or equivalent conjugate or polymer alone; versus no treatment
Procedure: Flow Cytometry Evaluation of Mitochondrial Membrane Potential. Loss of mitochondrial membrane potential, a known indicator for apoptosis, was assessed using the JC-1 dye. […] HeLas were incubated for 2 hours with 10 μM peptide or equivalent conjugate or polymer alone. JC-1 was added at a final concentration of 5 μg/mL and incubated for 15 minutes. Cells were washed 2 times with PBS, trypsinized, and resuspended in 0.5% BSA for flow cytometric analysis. Percent of cells displaying mitochondrial depolarization was quantified based on the number of green fluorescent cells that were negative for red fluorescence. Here, a significant loss of red fluorescent JC-1 aggregates and therefore a loss in mitochondrial polarization was detected following treatment with both the Antp-BH3 peptide and the polymer peptide conjugate (FIG. 21 A).

caspase 3/7 = experiment: Caspase 3/7 activity assay in HeLas; format: cell-based, human; settings: HeLa, 30 minutes, 25 μM peptide or equivalent polymer; relative to no treatment
Procedure: Caspase 3/7 Activity Assay. Caspase 3/7 activation was measured using a commercially available assay kit. This assay utilizes a profluorescent caspase 3/7 substrate that once enzymatically cleaved becomes fluorescent allowing for determination of relative enzyme activity using a fluorescent plate reader. Here, HeLas were incubated for 30 minutes with 25 μM peptide (alone or as polymer conjugate) in addition to polymer alone in a quantity equivalent to the conjugate samples. Afterwards, a caspase 3/7 fluorigenic indicator was added directly to the culture media for each sample. Plates were shaken for 1 hour and then assayed using a fluorescent plate reader. Data were expressed as percent caspase activity relative to samples receiving no treatment.

Substance: NH2-RQIKIWFQNRRMKWKKMGQVGRQLAIIGDDINRRYDSC-COOH (H-RQIKIWFQNRRMKWKKMGQVGRQLAIIGDDINRRYDSC-OH) [Antp-BH3]
- increase in percent of cells exhibiting loss of mitochondrial polarity [1]: approximately 4 fold
- caspase 3/7 activation (caspase 3/7): approximately 2.5 fold
